{"source": "patent US5266463A", "about": "“Highly sensitive assay method for L-carnitine and composition for practicing same” (Asahi Kasei Kogyo Kabushiki Kaisha, priority 1990, dated 1993)", "tested_on": "L-carnitine dehydrogenase (EC 1.1.1.108) produced by Alcaligenes sp. No. 981 FERM BP-2570", "assay": "Km-value determination of L-carnitine dehydrogenase (diaphorase/NBT coupled reaction)", "type": "biochemical", "from_the_text": "The L-carnitine dehydrogenase used in the composition for assay of L-carnitine according to the present invention can be an enzyme having reactivity on a substrate of L-carnitine together with a suitable coenzyme NAD or thio-NAD. Its suitability can be confirmed by using the said coenzyme and substrate. L-carnitine dehydrogenase produced by Alcaligenes sp. No. 981 (product of Toyo Jozo Co.) has a relative activity of approx. 15% when coenzyme thio-NAD is used, as compared to use of NAD.\nKm-value for NAD is measured in various concentrations of NAD^* in a reaction mixture of:\n100 mM Tris-HCl buffer (pH 9.0)\n5U diaphorase (Toyo Jozo Co.)\n0.025% NBT (Wako Pure Chem. Co.)\n1% polyoxyethylene (20) sorbitan monooleate (80) (Wako Pure Chem. Co.) and\nIn the reaction mixture, 50 mM L-carnitine is replaced by 1 mM NAD , and the concentration of L-carnitine is varied to measure the Km-value of L-carnitine.\nThe results are as shown above.", "note": "Values joined by “and” are separate entries in the source; they are usually repeats but may differ in a detail not shown here. Equal entries are not always repeated. Where two headings read alike, the source gives them in different places."}
{"smiles": "NC(=O)c1ccc[n+]([C@@H]2O[C@H](COP(=O)([O-])OP(=O)(O)OC[C@H]3O[C@@H](n4cnc5c(N)ncnc54)[C@H](O)[C@@H]3O)[C@@H](O)[C@H]2O)c1", "note": "[NAD, nicotinamide adenine dinucleotide]", "values": [{"measurement": "Km", "setting": "NAD concentration varied, 50 mM L-carnitine, 100 mM Tris-HCl buffer (pH 9.0), diaphorase, NBT, read-out: Km-value (NAD)", "result": "140 µM and 141 µM"}]}
{"smiles": "NC(=S)c1ccc[n+]([C@@H]2O[C@H](COP(=O)([O-])OP(=O)(O)OC[C@H]3O[C@@H](n4cnc5c(N)ncnc54)[C@H](O)[C@@H]3O)[C@@H](O)[C@H]2O)c1", "note": "[thio-NAD, thionicotinamide adenine dinucleotide]", "values": [{"measurement": "Km", "setting": "coenzyme thio-NAD, under the same conditions as NAD, read-out: Km-value (thio-NAD)", "result": 400, "unit": "µM"}]}
{"smiles": "C[N+](C)(C)C[C@H](O)CC(=O)[O-]", "note": "[L-carnitine]", "values": [{"measurement": "Km", "setting": "L-carnitine concentration varied, 1 mM NAD, 100 mM Tris-HCl buffer (pH 9.0), diaphorase, NBT, read-out: Km-value (L-carnitine)", "result": 9300, "unit": "µM"}]}
